# Measured values reported in ChEMBL document CHEMBL1201862, “PubChem BioAssay data set” (2004).
#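 Growth conditions: 96-well plates. Treatment: test compound, 48 hours, 5 concentrations. Analysis: linear interpolation between bracketing concentrations; unreached endpoints set to highest concentration. GI50 is the concentration that inhibits growth by half.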 Activity calls are given as the source filed them. Cut-off read from the data, not from the text of the source: active = GI50 up to about 1.1 µM and inactive = higher.
# Columns and labels:
# Assay in all cases: NCI-60 cell line screen, 48 h
# BT-549 = tested on: BT-549
# MDA-MB-435 = tested on: MDA-MB-435
# MDA-MB-231 = tested on: MDA-MB-231
# LXFL 529 = tested on: LXFL 529
# DMS-114 = tested on: DMS-114
# RXF 631 = tested on: RXF 631
# DMS-273 = tested on: DMS-273
# Hs-578T = tested on: Hs-578T
# M19-MEL = tested on: M19-MEL
SMILES,GI50 (BT-549),GI50 (MDA-MB-435),GI50 (MDA-MB-231),GI50 (LXFL 529),GI50 (DMS-114),GI50 (RXF 631),GI50 (DMS-273),GI50 (Hs-578T),GI50 (M19-MEL)
c1ccc2c(c1)c1ccccc1n2Cn1c2ccccc2c2ccccc21,> 100 µM (inactive),> 100 µM (inactive),> 100 µM (inactive),–,–,–,–,–,–
CCOC(=O)/C=C(\C)c1ccc(C)cc1C,–,–,–,14.6 µM (inactive),> 100 µM (inactive),> 100 µM (inactive),> 100 µM (inactive),–,–
COc1ccc(C2c3cc4c(cc3OC(Nc3ccccc3)C2C)OCO4)cc1 (stereo unspecified),68.1 µM (inactive),67.8 µM (inactive),> 100 µM (inactive),–,–,–,–,> 100 µM (inactive),–
O=c1[nH]c2ccc([N+](=O)[O-])cc2nc1/C(=N/Nc1ccccc1)C(O)c1ccco1 (stereo unspecified),–,–,–,59.8 µM (inactive),18.9 µM (inactive),–,42.4 µM (inactive),–,85.9 µM (inactive)
Cc1c(-c2cc3n(n2)C(c2cccs2)C(C#N)=C(c2ccccc2)N3)c(=O)n(-c2ccccc2)n1C (stereo unspecified),–,–,–,–,77.3 µM (inactive),–,> 91.6 µM (inactive),–,> 100 µM (inactive)
CCN(CC)CCSc1nc(-c2c[nH]c3nc(C)ccc3c2=O)n[nH]1,> 100 µM (inactive),> 100 µM (inactive),> 100 µM (inactive),–,–,–,–,> 100 µM (inactive),–
CC1=NN(C(=O)c2ccccc2)C(=O)C1/N=N/c1ccccc1C(=O)O (stereo unspecified),–,–,–,–,4.08 µM (inactive),–,3.05 µM (inactive),–,5.92 µM (inactive)
Clc1ccc(COc2ccccc2/C=N/c2c(-c3ccco3)nc3ccccn23)c(Cl)c1,30 µM (inactive),14.5 µM (inactive),20.2 µM (inactive),–,–,–,–,36.9 µM (inactive),–
Cc1c2cc[n+](C)cc2c(COC2OC(CO)C(O)C2O)c2c3ccccc3n(C)c12 (stereo unspecified),–,–,–,–,46.3 µM (inactive),–,> 89.9 µM (inactive),–,65.5 µM (inactive)
CN(C)CCNC(=O)c1cccc2c1Nc1ccccc1S2,–,–,–,–,6.76 µM (inactive),–,13.7 µM (inactive),–,15.6 µM (inactive)
CCC1(C)NN=c2s/c(=C/c3ccc(OC)cc3)c(=O)n2N1 (stereo unspecified),–,–,–,> 100 µM (inactive),–,–,> 100 µM (inactive),–,–
O=C1CC2(CCC(O)(c3ccccc3)C(C(=O)c3ccccc3)C2)C(=O)c2ccccc2N1 (stereo unspecified),> 100 µM (inactive),> 100 µM (inactive),> 100 µM (inactive),–,–,–,–,> 100 µM (inactive),–
Cc1oc2nc(N(C)C)n3cnnc3c2c1C,> 100 µM (inactive),> 100 µM (inactive),> 100 µM (inactive),–,–,–,–,> 100 µM (inactive),–
CCc1cc2c(oc3cc4ccccc4cc32)c(=O)[nH]1,> 10 µM (inactive),–,> 10 µM (inactive),–,–,–,–,> 10 µM (inactive),–
CNc1cc2c(c3ccccc13)C(CCl)CN2C(=O)c1cc2cc(OC)c(OC)c(OC)c2[nH]1 (stereo unspecified),0.00881 µM (active),0.00309 µM (active),0.0074 µM (active),–,–,–,–,0.00802 µM (active),–
N=C(N)c1csc([C@@H]2O[C@H](CO)[C@@H](O)[C@H]2O)n1,–,–,–,> 100 µM (inactive),–,> 100 µM (inactive),> 100 µM (inactive),–,> 100 µM (inactive)
